Key:
Format in all cases: in vivo
[1] = test system: Anopheles stephensi (Indian malaria mosquito); assay: Activity against Anopheles stephensi, dry deposit in tissue culture plates (Example B11); settings: 200 ppm in ethanol, adult females, after 48 h and/or 24 h
Procedure: Example B11: Activity Against Anopheles stephensi (Indian Malaria Mosquito)
Test solutions, at an application rate of 200 ppm in ethanol, were applied to 12 well tissue culture plates. Once the deposits were dry, five, two to five day old adult female Anopheles stephensi were added to each well, and sustained with a 10% sucrose solution in a cotton wool plug. Assessment of knockdown was made one hour after introduction, and mortality was assessed at 24 and 48 hours after introduction. The following compounds gave at least 80% control of Anopheles stephensi after 48 h and/or 24 h: P1.14.

[2] = test system: Plutella xylostella (diamond back moth); assay: Activity against Plutella xylostella, artificial diet (Example B2); settings: 120 h, L2 larvae on artificial diet, 5 days after infestation, read-out: effect in at least one of the two categories (mortality or growth inhibition)
Procedure: Example B2: Activity Against Plutella xylostella (Diamond Back Moth)
24-well microtiter plates with artificial diet were treated with aqueous test solutions prepared from 10′000 ppm DMSO stock solutions by pipetting. After drying, the plates were infested with L2 larvae (10 to 15 per well). The samples were assessed for mortality and growth inhibition in comparison to untreated samples 5 days after infestation. The following compounds gave an effect of at least 80% in at least one of the two categories (mortality or growth inhibition) at an application rate of 200 ppm: P1.3, P1.6, P1.7, P1.8, P1.9, P1.13, P1.14, P1.15, P1.16, P1.17 and P1.18.

[3] = test system: Spodoptera littoralis (Egyptian cotton leaf worm); assay: Activity against Spodoptera littoralis, cotton leaf disc spray (Example B1); settings: foliar, 72 h, L1 larvae on cotton leaf discs, 3 days after infestation, read-out: control in at least one of the three categories (mortality, anti-feedancy or growth inhibition)
Procedure: Example B1: Activity Against Spodoptera littoralis (Egyptian Cotton Leaf Worm)
Cotton leaf discs were placed on agar in 24-well microtiter plates and sprayed with aqueous test solutions prepared from 10′000 ppm DMSO stock solutions. After drying the leaf discs were infested with five L1 larvae. The samples were assessed for mortality, anti-feedant effect, and growth inhibition in comparison to untreated samples 3 days after infestation. Control of Spodoptera littoralis by a test sample is when at least one of mortality, anti-feedant effect, and growth inhibition is higher than the untreated sample. The following compounds gave an effect of at least 80% control in at least one of the three categories (mortality, anti-feedancy or growth inhibition) at an application rate of 200 ppm: P1.2, P1.3, P1.6, P1.7, P1.8, P1.9, P1.10, P1.12, P1.13, P1.14, P1.15, P1.16, P1.17 and P1.18.

[4] = test system: Euschistus heros (neotropical brown stink bug); assay: Activity against Euschistus heros, soybean leaf spray (Example B7); settings: 120 h, N-2 nymphs on soybean leaf, 5 days after infestation
Procedure: Example B7: Activity Against Euschistus heros (Neotropical Brown Stink Bug)
Soybean leaf on agar in 24-well microtiter plates were sprayed with aqueous test solutions prepared from 10′000 ppm DMSO stock solutions. After drying the leaf were infested with N-2 nymphs. The samples were assessed for mortality 5 days after infestation.

[5] = test system: Diabrotica balteata (corn root worm); assay: Activity against Diabrotica balteata, maize sprouts (Example B3); settings: 96 h, L2 larvae on maize sprouts, 4 days after infestation, read-out: effect in at least one of the two categories (mortality or growth inhibition)
Procedure: Example B3: Activity Against Diabrotica balteata (Corn Root Worm)
Maize sprouts, placed on an agar layer in 24-well microtiter plates were treated with aqueous test solutions prepared from 10′000 ppm DMSO stock solutions by spraying. After drying, the plates were infested with L2 larvae (6 to 10 per well). The samples were assessed for mortality and growth inhibition in comparison to untreated samples 4 days after infestation. The following compounds gave an effect of at least 80% in at least one of the two categories (mortality or growth inhibition) at an application rate of 200 ppm: P1.1, P1.2, P1.6, P1.7, P1.8, P1.9, P1.10, P1.13, P1.14, P1.15, P1.16, P1.17 and P1.18.

[6] = test system: Myzus persicae (green peach aphid); assay: Activity against Myzus persicae, sunflower leaf disc spray (Example B5); settings: foliar, 144 h, mixed-age aphid population on sunflower leaf discs, 6 days after infestation
Procedure: Example B5: Activity Against Myzus persicae (Green Peach Aphid)
Sunflower leaf discs were placed on agar in a 24-well microtiter plate and sprayed with aqueous test solutions prepared from 10′000 ppm DMSO stock solutions. After drying, the leaf discs were infested with an aphid population of mixed ages. The samples were assessed for mortality 6 days after infestation.

SMILES: CCS(=O)(=O)c1cc(C(F)(F)F)ccc1-n1cc(-c2ccc(C(F)(F)F)nc2)cn1 [Compound P1.14]
- control of Anopheles stephensi [1]: at least 80%
- percent effect (mortality or growth inhibition) at 200 ppm [2]: ≥ 80%
- percent control (mortality, anti-feedant effect or growth inhibition) at 200 ppm [3]: ≥ 80%
- mortality at 200 ppm [4]: ≥ 80%
- percent effect (mortality or growth inhibition) at 200 ppm [5]: ≥ 80%
- mortality at 200 ppm [6]: ≥ 80%
